What all share (type): functional, cell-based
One experiment deals with DU-145. Put plainly: Cytotoxicity against human DU145 cells after 48 hrs by MTT assay. The conditions noted are these: DU-145, 48 h.
In the next experiment the test system is HeLa. The experiment can be described thus: Cytotoxicity against human HeLa cells after 48 hrs by MTT assay. Background: Tetrazolium dyes change colour on reduction, which living cells bring about.
A further experiment has as its system A549. Put plainly: Cytotoxicity against human A549 cells after 48 hrs by MTT assay. As to conditions: A549, 48 h.

As usually defined, the IC50 is the point on the concentration scale where inhibition reaches its midpoint. Lower therefore signals higher potency.

As to `COc1ccc(-n2nc(C)c3c(=O)oc4ccccc4c32)cc1`, the 50% inhibitory concentration (IC50) with DU-145 was determined as 175 µM; with HeLa it was 190 µM; in the experiment on A549 it was 27 µM.
The corresponding values for `Cc1nn(-c2ccc(Cl)cc2)c2c1c(=O)oc1ccccc12` are 121 µM, 83 µM and 136 µM.
For `COC(=O)c1c(-c2cc3ccccc3oc2=O)nn(-c2cccc(Cl)c2)c1C(=O)OC`, in that order: 32 µM, 76 µM and 30 µM.
Regarding `Cc1nn(-c2cccc(F)c2)c2c1c(=O)oc1ccccc12`, the 50% inhibitory concentration (IC50) in the experiment on DU-145 came out at 134 µM; in the experiment with HeLa, 276 µM; in the experiment with A549 it was 125 µM.
The corresponding values for `Cc1nn(-c2ccc(Br)cc2)c2c1c(=O)oc1ccccc12` are 53 µM, 130 µM and 130 µM.
In the case of `COc1ccc2oc(=O)c3c(C)nn(-c4ccccc4)c3c2c1`, the IC50 in the experiment on DU-145 is 150 µM; with HeLa, 115 µM; with A549, 150 µM.
Take `O=c1oc2ccccc2c2c1cnn2-c1ccccc1`: the concentration for half-maximal inhibition (IC50) came out at 125 µM in the experiment on DU-145, 165 µM in the experiment on HeLa and 175 µM in the experiment with A549.
For `Cc1cccc(-n2ncc3c(=O)oc4ccccc4c32)c1`, in that order: 100 µM, 135 µM and 160 µM.
The corresponding values for `O=c1oc2ccccc2c2c1cnn2-c1cccc(Cl)c1` are 60 µM, 110 µM and 110 µM.
For `Cc1ccc2oc(=O)c3cnn(-c4ccccc4)c3c2c1`, in that order: 110 µM, 192 µM and 125 µM.
Turning to `Cc1cccc(-n2ncc3c(=O)oc4ccc(C)cc4c32)c1`, the concentration for half-maximal inhibition (IC50) in the experiment on DU-145 amounted to 130 µM; in the experiment on HeLa it was 150 µM; in the experiment on A549, 145 µM.
Take `Cc1ccc2oc(=O)c3cnn(-c4cccc(Cl)c4)c3c2c1`: the results for the 50% inhibitory concentration (IC50) in the experiment with DU-145, in the experiment on HeLa and with A549 were 105 µM, 120 µM and 150 µM, respectively.
`CCOC(=O)c1c(-c2cc3ccccc3oc2=O)nn(-c2ccc(C)c(C)c2)c1C(=O)OCC`: the IC50 with DU-145 was 40 µM; with HeLa, 50 µM; in the experiment on A549, 52 µM.
The corresponding values for `CCOC(=O)c1c(-c2cc3ccccc3oc2=O)nn(-c2ccc(OC)cc2)c1C(=O)OCC` are 39 µM, 90 µM and 86 µM.
As for `CCOC(=O)c1c(-c2cc3ccccc3oc2=O)nn(-c2cccc(Cl)c2)c1C(=O)OCC`, the IC50 in the experiment with DU-145 was 35 µM; with HeLa it was 22 µM; in the experiment with A549, 28 µM.
For `CCOC(=O)c1c(-c2cc3ccccc3oc2=O)nn(-c2cccc(F)c2)c1C(=O)OCC`, in that order: 32 µM, 68 µM and 59 µM.
On to `COC(=O)c1c(-c2cc3ccccc3oc2=O)nn(-c2cccc(F)c2)c1C(=O)OC`, for which the 50% inhibitory concentration (IC50) with DU-145 amounted to 37 µM; with HeLa it was 76 µM; in the experiment on A549 it was 50 µM.
Turning to `CCOC(=O)c1c(-c2cc3ccccc3oc2=O)nn(-c2ccc(Cl)cc2)c1C(=O)OCC`, the IC50 in the experiment with DU-145 was 26 µM; in the experiment on HeLa, 87 µM; in the experiment with A549 it was 35 µM.
Consider `CCOC(=O)c1c(-c2cc3ccccc3oc2=O)nn(-c2ccc(Br)cc2)c1C(=O)OCC`, for which the IC50 turned out to be 61 µM in the experiment on DU-145, 250 µM with HeLa and 100 µM in the experiment with A549.
The corresponding values for `COC(=O)c1c(-c2cc3ccccc3oc2=O)nn(-c2ccc(Br)cc2)c1C(=O)OC` are 93 µM, 120 µM and 165 µM.
The corresponding values for `CCOC(=O)c1c(-c2cc3cc(OC)ccc3oc2=O)nn(-c2ccccc2)c1C(=O)OCC` are 27 µM, 145 µM and 35 µM.
For `CCOC(=O)c1c(-c2cc3cc(OC)ccc3oc2=O)nn(-c2cccc(C)c2)c1C(=O)OCC`, in that order: 31 µM, 155 µM and 102 µM.
On to `CCOC(=O)c1c(-c2cc3cc(OC)ccc3oc2=O)nn(-c2cccc(Cl)c2)c1C(=O)OCC`, for which the IC50 amounted to 29 µM with DU-145, 160 µM with HeLa and 148 µM in the experiment on A549.
For `CCOC(=O)c1c(-c2cc3ccc(OC)cc3oc2=O)nn(-c2ccccc2)c1C(=O)OCC`, in that order: 33 µM, 140 µM and 132 µM.
On to `CCOC(=O)c1c(-c2cc3ccc(OC)cc3oc2=O)nn(-c2cccc(C)c2)c1C(=O)OCC`, for which the 50% inhibitory concentration (IC50) with DU-145 worked out at 35 µM; with HeLa, 35 µM; with A549, 171 µM.
On to `CCOC(=O)c1c(-c2cc3ccc(OC)cc3oc2=O)nn(-c2cccc(Cl)c2)c1C(=O)OCC`, for which the 50% inhibitory concentration (IC50) in the experiment with DU-145 was 38 µM; in the experiment on HeLa, 205 µM; with A549, 221 µM.
The corresponding values for `CCOC(=O)c1c(-c2cc3ccc(OCC=C(C)C)cc3oc2=O)nn(-c2ccccc2)c1C(=O)OCC` are 75 µM, 130 µM and 136 µM.
In the case of `CCOC(=O)c1c(-c2cc3ccc(OCC=C(C)C)cc3oc2=O)nn(-c2cccc(C)c2)c1C(=O)OCC`, the figures for the IC50 in the experiment on DU-145, in the experiment on HeLa and with A549 were 125 µM, 150 µM and 178 µM, respectively.
Regarding `CCOC(=O)c1c(-c2cc3ccc(OCC=C(C)C)cc3oc2=O)nn(-c2cccc(Cl)c2)c1C(=O)OCC`, the IC50 with DU-145 is 139 µM; with HeLa, 110 µM; in the experiment with A549 it was 163 µM.
For `CCOC(=O)c1c(-c2cc3c(ccc4ccccc43)oc2=O)nn(-c2ccccc2)c1C(=O)OCC`, in that order: 80 µM, 120 µM and 136 µM.
As for `CCOC(=O)c1c(-c2cc3c(ccc4ccccc43)oc2=O)nn(-c2cccc(C)c2)c1C(=O)OCC`, the IC50 in the experiment with DU-145 was found to be 259 µM; in the experiment on HeLa, 155 µM; in the experiment with A549, 179 µM.
The corresponding values for `CCOC(=O)c1c(-c2cc3c(ccc4ccccc43)oc2=O)nn(-c2cccc(Cl)c2)c1C(=O)OCC` are 257 µM, 170 µM and 165 µM.
For the compound `CCOC(=O)c1c(-c2cc3cc4c(cc3oc2=O)OC(C)(C)CC4)nn(-c2ccccc2)c1C(=O)OCC`, the figures for the 50% inhibitory concentration (IC50) in the experiment with DU-145, in the experiment on HeLa and in the experiment with A549 were 209 µM, 125 µM and 189 µM, respectively.
The corresponding values for `CCOC(=O)c1c(-c2cc3cc4c(cc3oc2=O)OC(C)(C)CC4)nn(-c2cccc(C)c2)c1C(=O)OCC` are 67 µM, 105 µM and 175 µM.
The corresponding values for `CCOC(=O)c1c(-c2cc3cc4c(cc3oc2=O)OC(C)(C)CC4)nn(-c2cccc(Cl)c2)c1C(=O)OCC` are 74 µM, 145 µM and 146 µM.
Turning to `CCOC(=O)c1c(-c2c(Cl)c3ccccc3oc2=O)nn(-c2ccccc2)c1C(=O)OCC`, the IC50 in the experiment on DU-145 turned out to be 48 µM; in the experiment on HeLa, 100 µM; in the experiment with A549, 34 µM.
Turning to `CCOC(=O)c1c(-c2c(Cl)c3ccccc3oc2=O)nn(-c2cccc(C)c2)c1C(=O)OCC`, the 50% inhibitory concentration (IC50) was 32 µM in the experiment with DU-145, 30 µM with HeLa and 36 µM in the experiment with A549.
Turning to `CCOC(=O)c1c(-c2c(Cl)c3ccccc3oc2=O)nn(-c2ccc(OC)cc2)c1C(=O)OCC`, the IC50 in the experiment on DU-145 is 25 µM; in the experiment on HeLa it was 27 µM; in the experiment with A549, 18 µM.
On to `CCOC(=O)c1c(-c2c(Cl)c3ccccc3oc2=O)nn(-c2cccc(Cl)c2)c1C(=O)OCC`, for which the concentration for half-maximal inhibition (IC50) was 24 µM with DU-145, 40 µM in the experiment with HeLa and 38 µM with A549.
On to `CCOC(=O)c1c(-c2c(Cl)c3ccccc3oc2=O)nn(-c2ccc(Br)cc2)c1C(=O)OCC`, for which the IC50 with DU-145 turned out to be 32 µM; in the experiment on HeLa, 500 µM; in the experiment with A549, 30 µM.
For `CCOC(=O)c1c(-c2c(Cl)c3cc(C)ccc3oc2=O)nn(-c2ccccc2)c1C(=O)OCC`, in that order: 50 µM, 228 µM and 108 µM.
`CCOC(=O)c1c(-c2c(Cl)c3cc(C)ccc3oc2=O)nn(-c2cccc(C)c2)c1C(=O)OCC`: the concentration for half-maximal inhibition (IC50) came to 103 µM in the experiment with DU-145, 115 µM in the experiment with HeLa and 115 µM with A549.
Take `CCOC(=O)c1c(-c2c(Cl)c3cc(C)ccc3oc2=O)nn(-c2cccc(Cl)c2)c1C(=O)OCC`: the concentration for half-maximal inhibition (IC50) in the experiment on DU-145 came out at 156 µM; in the experiment with HeLa it was 125 µM; with A549, 128 µM.
As to `CCOC(=O)c1c(-c2cc3ccccc3oc2=O)nn(-c2ccccc2)c1C(=O)OCC`, the concentration for half-maximal inhibition (IC50) with DU-145 was 57 µM; in the experiment on HeLa, 100 µM; with A549, 100 µM.
With `COC(=O)c1c(-c2cc3ccccc3oc2=O)nn(-c2ccccc2)c1C(=O)OC`, the results for the IC50 with DU-145, with HeLa and with A549 were 30 µM, 35 µM and 28 µM, respectively.
The corresponding values for `CCOC(=O)c1c(-c2cc3ccccc3oc2=O)nn(-c2cccc(C)c2)c1C(=O)OCC` are 47 µM, 245 µM and 52 µM.
The corresponding values for `COC(=O)c1c(-c2cc3ccccc3oc2=O)nn(-c2cccc(C)c2)c1C(=O)OC` are 35 µM, 45 µM and 51 µM.
For `Cc1nn(-c2cccc(Cl)c2)c2c1c(=O)oc1ccccc12`, in that order: 139 µM, 175 µM and 85 µM.
On to `Cc1nn(-c2ccccc2)c2c1c(=O)oc1ccccc12`, for which the IC50 worked out at 120 µM in the experiment with DU-145, 120 µM in the experiment with HeLa and 119 µM in the experiment on A549.
Consider `Cc1cccc(-n2nc(C)c3c(=O)oc4ccccc4c32)c1`, for which the half-maximal inhibitory concentration (IC50) in the experiment on DU-145 was 150 µM; in the experiment on HeLa, 154 µM; with A549, 43 µM.
The corresponding values for `COc1cccc2c1C(=O)c1c(O)c3c(c(O)c1C2=O)C[C@@](O)(C(=O)CO)C[C@@H]3O[C@H]1C[C@H](N)[C@H](O)[C@H](C)O1` [DOXORUBICIN] are 6 µM, 4.1 µM and 4 µM.
The corresponding values for `COC(=O)Nc1nc2cc(C(=O)c3cccs3)ccc2[nH]1` [NOCODAZOLE] are 2.8 µM, 0.71 µM and 2.31 µM.
